{"source": "patent US11267807B2", "about": "“Use of small molecule inhibitors to KLF10 for modulation of T regulatory cells and cancer immunotherapy” (THE BRIGHAM AND WOMEN'S HOSPITAL, INC., priority 2015, dated 2022)", "key": {"CD4+CD25− T cells": {"system": "CD4+CD25− T cells", "experiment": "T regulatory cell differentiation assay, flow cytometry", "format": "cell-based, mouse", "details": "3 days culture, FIG. 4A-4C", "protocol": "Mouse spleens were meshed through a cell strainer into Phosphate Buffered Saline (PBS) with 2% Fetal Bovine Serum and 1% Penicillin/Streptomycin, and cells were collected by spinning at 1000 rpm for 10 min. CD4+CD25− T cells were purified by using CD4+CD25+ T cell isolation kit (Miltenyi Biotec) according to the manufacturer's instructions. Briefly, cells were incubated with Biotin-conjugated antibodies, followed by anti-biotin microbeads and PE-conjugated anti-CD25 antibody for 30 min on ice with gentle shaking. Mixtures were loaded into pre-washed LD columns in the Magnetic field, and CD4+ cells were collected and then incubated with anti-PE microbeads. Mixtures were loaded into pre-washed MS columns in the magnetic field to collect CD4+CD25− T cells (non-bound cell fraction). Cells were plated into 12-well plates pre-coated with 1 μg/mL anti-CD3e (eBioscience) overnight in RPMI1640 Medium with 10% FBS, 1% Penicillin/Streptomycin, 1% non-essential amino acids, and 2-mercaptoethanol, 1 μg/mL anti-CD28 (BD Biosciences), and 1 ng/mL TGF-β1 (Peprotech). Cells were cultured at 37° C. up to five days for the conversion of CD4+CD25− T cells to CD4+CD25+ T regs. For flow cytometry, cells were stained with anti-mouse CD25 Alexa Fluo®488 (eBioscience) and analyzed by using multicolor FACS (ARIA; BD Biosciences) as previously described.^12"}, "Foxp3": {"system": "Foxp3", "experiment": "Foxp3 expression by qPCR during conversion of CD4+CD25− T cells to T regs", "format": "cell-based, mouse", "details": "50 μM, FIG. 5", "protocol": "Taken together, these observations indicate that these compounds effectively suppress the KLF10 target gene Foxp3, a critical regulator of T reg cell differentiation.^28\nT cells were suspended in TRIzol® reagent (Invitrogen), and total RNA was isolated according to the manufacturer's instructions. Reverse transcriptions were performed by using the Reverse Transcription Kit and QuantiTect SYBR Green reverse transcription-PCR kit from Qiagen for quantitative real-time quantitative PCR analysis on a Mx3000P real-time PCR system (Stratagene) following the manufacturer's instructions. Primers were used to detect mouse FoxP3 as previously described.^12\nMouse spleens were meshed through a cell strainer into Phosphate Buffered Saline (PBS) with 2% Fetal Bovine Serum and 1% Penicillin/Streptomycin, and cells were collected by spinning at 1000 rpm for 10 min. CD4+CD25− T cells were purified by using CD4+CD25+ T cell isolation kit (Miltenyi Biotec) according to the manufacturer's instructions. Briefly, cells were incubated with Biotin-conjugated antibodies, followed by anti-biotin microbeads and PE-conjugated anti-CD25 antibody for 30 min on ice with gentle shaking. […] For flow cytometry, cells were stained with anti-mouse CD25 Alexa Fluo®488 (eBioscience) and analyzed by using multicolor FACS (ARIA; BD Biosciences) as previously described.^12"}, "prostate TRAMP-C2 tumors": {"system": "prostate TRAMP-C2 tumors", "experiment": "In vivo prostate TRAMP-C2 tumor model", "details": "systemic delivery i.p. Day 3, 200 mg/kg, FIG. 13"}, "KLF10 [1]": {"target": "T1, KLF10 (Homo sapiens, UniProt Q13118)", "T1 sequence (Q13118 1-480)": "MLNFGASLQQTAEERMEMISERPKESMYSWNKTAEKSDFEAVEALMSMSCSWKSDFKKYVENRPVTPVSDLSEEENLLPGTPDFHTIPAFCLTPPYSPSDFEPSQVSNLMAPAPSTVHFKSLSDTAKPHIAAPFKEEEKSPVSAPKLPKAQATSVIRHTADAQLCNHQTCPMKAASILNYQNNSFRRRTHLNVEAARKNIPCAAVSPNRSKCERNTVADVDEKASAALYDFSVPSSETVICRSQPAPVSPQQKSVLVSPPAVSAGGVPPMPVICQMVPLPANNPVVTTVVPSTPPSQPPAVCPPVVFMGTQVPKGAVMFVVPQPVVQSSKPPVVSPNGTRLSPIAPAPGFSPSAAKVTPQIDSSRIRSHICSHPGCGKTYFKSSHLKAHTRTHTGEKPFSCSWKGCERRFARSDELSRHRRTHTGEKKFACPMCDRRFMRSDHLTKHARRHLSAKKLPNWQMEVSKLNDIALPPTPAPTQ", "experiment": "Gel mobility shift assay, KLF10 DNA-binding activity", "parameters": "GST (N); purchased Novus Biologicals", "protocol": "The identified small molecule compounds were next examined for effects on KLF10 DNA-protein binding.\nKLF10 recombinant protein was obtained from Novus Biologicals. Oligonucleotides 5′-[…] End-labeled oligos (1 μmol/L) were annealed in a buffer system with 10 mM Tris, 50 mM NaCl, pH 8.0 by heating at 95° C. for 5 min, then slowly cooled to 65° C. for 30 min incubation, and cooled to room temperature. […] Compounds were incubated with KLF10 in a reaction system for 4 hrs at room temperature, and then Biotin-labeled probes were added for a 1 hr incubation. Binding reactions were electrophoresed for 80 min at 100 volts on 6% polyacrylamide gel in 0.5×TBE. The binding reactions were transferred to nylon membranes at 100 volts for 45 min, and transferred DNA was cross-linked to membrane using an HL-2000 Hybrilinker instrument. Biotin-labeled DNAs were detected by chemiluminescence."}, "TGF-beta1": {"system": "TGF-beta1", "experiment": "TGF-beta1 expression in CD4+ T cells isolated from B16 melanoma tumors", "format": "in vivo", "details": "mice injected i.p., FIG. 14"}, "B16 melanoma tumor": {"system": "B16 melanoma tumor", "experiment": "In vivo B16 melanoma tumor model", "parameters": "species or system mice"}, "KLF10 [2]": {"target": "T1, KLF10", "experiment": "KLF10 CACCC-luciferase reporter assay in transfected HeLa cells", "format": "cell-based", "parameters": "host or cells: HeLa", "details": "for inhibition at 100 µM: HeLa"}, "GLI": {"target": "T2, GLI (Homo sapiens, UniProt P08151)", "T2 construct": "host or cells: HEK293 (transfected)", "T2 sequence (P08151 1-1106)": "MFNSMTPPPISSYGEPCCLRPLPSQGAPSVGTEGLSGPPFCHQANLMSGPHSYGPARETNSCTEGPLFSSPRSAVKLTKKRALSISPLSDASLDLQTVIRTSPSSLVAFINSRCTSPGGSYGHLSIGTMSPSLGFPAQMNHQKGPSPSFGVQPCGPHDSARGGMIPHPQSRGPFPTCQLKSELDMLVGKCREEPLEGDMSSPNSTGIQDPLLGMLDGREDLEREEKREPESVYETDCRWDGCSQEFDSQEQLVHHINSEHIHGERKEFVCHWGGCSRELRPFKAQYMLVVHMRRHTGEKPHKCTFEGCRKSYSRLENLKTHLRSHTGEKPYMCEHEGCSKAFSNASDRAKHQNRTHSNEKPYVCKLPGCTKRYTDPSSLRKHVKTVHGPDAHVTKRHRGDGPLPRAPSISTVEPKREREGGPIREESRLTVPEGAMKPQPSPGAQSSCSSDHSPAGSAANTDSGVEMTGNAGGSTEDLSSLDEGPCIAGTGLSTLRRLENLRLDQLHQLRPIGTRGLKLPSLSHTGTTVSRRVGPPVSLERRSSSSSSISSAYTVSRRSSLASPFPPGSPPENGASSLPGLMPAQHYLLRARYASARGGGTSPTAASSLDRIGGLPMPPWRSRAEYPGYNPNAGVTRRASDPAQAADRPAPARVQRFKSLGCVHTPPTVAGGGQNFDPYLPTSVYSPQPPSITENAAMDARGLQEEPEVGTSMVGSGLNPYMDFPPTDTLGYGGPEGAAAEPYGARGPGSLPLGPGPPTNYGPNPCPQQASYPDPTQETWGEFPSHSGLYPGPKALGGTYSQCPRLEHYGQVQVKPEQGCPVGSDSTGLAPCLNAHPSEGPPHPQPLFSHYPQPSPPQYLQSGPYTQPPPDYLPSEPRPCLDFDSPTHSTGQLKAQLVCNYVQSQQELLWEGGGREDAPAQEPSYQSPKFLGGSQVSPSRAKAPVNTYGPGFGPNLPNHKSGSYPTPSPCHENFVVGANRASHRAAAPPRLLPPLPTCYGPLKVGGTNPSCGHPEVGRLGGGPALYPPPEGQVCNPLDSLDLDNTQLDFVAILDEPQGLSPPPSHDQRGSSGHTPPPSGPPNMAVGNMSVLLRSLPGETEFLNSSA", "details": "30 μM, transfected HEK293 cells; cited from earlier work"}, "[3]": {"details": "KLF10 reporter activity, 100 μM, Table 1, read-out: % Inhibition at 100 μM (± sd)"}, "[4]": {"details": "concentration that inhibited 50% of KLF10 reporter activity, Table 1, read-out: IC50"}}, "note": "Where two headings read alike, the source gives them in different places."}
{"smiles": "Cc1sc2nc(SCC(=O)c3ccc(O)c(O)c3)nc(O)c2c1C", "note": "[#15-09]", "values": [{"measurement": "inhibition of the percentage of CD4+CD25+ T regs", "setting": "CD4+CD25− T cells", "result": 29.2, "unit": "%"}, {"measurement": "inhibition of Foxp3 expression", "setting": "Foxp3", "result": 90.8, "unit": "%"}]}
{"smiles": "Cc1ccc(OCC(=O)c2cc(C)c(O)cc2O)cc1", "note": "[#48]", "values": [{"measurement": "prostate TRAMP-C2 tumor inhibition", "setting": "prostate TRAMP-C2 tumors", "result": "inhibits"}, {"measurement": "inhibition of the percentage of CD4+CD25+ T regs", "setting": "CD4+CD25− T cells", "result": 57.4, "unit": "%"}, {"measurement": "inhibition of Foxp3 expression", "setting": "Foxp3", "result": 84.7, "unit": "%"}, {"measurement": "inhibition at 8 µM", "setting": "KLF10 [1]; 8 μM", "result": 11, "unit": "%"}, {"measurement": "inhibition at 40 µM", "setting": "KLF10 [1]; 40 μM", "result": 25, "unit": "%"}, {"measurement": "TGF-beta1 expression in CD4+ T cells from tumors", "setting": "TGF-beta1", "result": "reduced TGF-beta1 expression"}, {"measurement": "B16 melanoma tumor inhibition", "setting": "B16 melanoma tumor; local injection Day 0, 20 mg/kg, FIG. 11", "result": "inhibits"}, {"measurement": "B16 melanoma tumor model inhibition", "setting": "B16 melanoma tumor; systemic delivery i.p. Day 3, 200 mg/kg, FIG. 12", "result": "inhibits"}, {"measurement": "induction of luciferase activity by exogenous KLF10 expression blocked", "setting": "KLF10 [2]; 100 μM, FIG. 1C", "result": 96.6, "unit": "%"}, {"measurement": "inhibition at 100 µM", "setting": "KLF10 [2]; [3]", "result": "54.5 ± 8", "unit": "%"}, {"measurement": "inhibition at 100 µM", "setting": "KLF10 [2]; KLF10 reporter activity, 100 μM, Table 2, read-out: % Inhibition 100 μM (± sd)", "result": "54.5 ± 8", "unit": "%"}, {"measurement": "IC50", "setting": "KLF10 [2]; KLF10 reporter activity, Table 2, read-out: IC50", "result": 112, "unit": "µM"}, {"measurement": "IC50", "setting": "KLF10 [2]; [4]", "result": 112, "unit": "µM"}, {"measurement": "IC50", "setting": "KLF10 [2]; non-linear regression of dose-response, FIG. 2A-2C, read-out: IC50 on KLF10 transcriptional activity", "result": 112, "unit": "µM"}]}
{"smiles": "Cc1cc(C(=O)Nc2cnc(O)nc2O)ccc1[N+](=O)[O-]", "note": "[#77]", "values": [{"measurement": "inhibition at 100 µM", "setting": "KLF10 [2]; [3]", "result": "61.7 ± 2.6", "unit": "%"}, {"measurement": "IC50", "setting": "KLF10 [2]; [4]", "result": 10, "unit": "µM"}]}
{"smiles": "OC1=CN=C(O)/C1=C/Nc1ccccc1O", "note": "[#82]", "values": [{"measurement": "inhibition at 100 µM", "setting": "KLF10 [2]; [3]", "result": "31.9 ± 0.4", "unit": "%"}]}
{"smiles": "c1cc(-c2sc(-c3ccncc3)c(-c3ccncc3)c2-c2ccncc2)ccn1", "note": "[GANT58]", "values": [{"measurement": "GLI-induced transcription", "setting": "GLI", "result": "inhibited"}]}
{"smiles": "CN(C)c1ccccc1CN1CCCN(Cc2ccccc2N(C)C)C1c1ccncc1", "note": "[GANT61]", "values": [{"measurement": "GLI-induced transcription", "setting": "GLI", "result": "inhibited"}]}
{"smiles": "Cc1ccc(C(=O)c2cc(O)c(O)c([N+](=O)[O-])c2)cc1", "note": "[Tolcapone, reference compound]", "values": [{"measurement": "inhibition at 100 µM", "setting": "KLF10 [2]; [3]", "result": "71.8 ± 0.9", "unit": "%"}, {"measurement": "IC50", "setting": "KLF10 [2]; [4]", "result": 50, "unit": "µM"}]}
